IC50 data for 15 compounds are collected here from ChEMBL document CHEMBL5576041, “13-oxyingenol dodecanoate derivatives induce mitophagy and ferroptosis through targeting TMBIM6 as potential anti-NSCLC agents” (Eur J Med Chem, 2024).

Molecules are shown by their SMILES.

Common to all, as to format: functional, cell-based
The test system of assay [1] is A549. Put plainly: Antiproliferative activity against human A549 cells assessed as inhibition of cell growth incubated for 24 to 72 hrs by CCK8 assay.
Assay [2] has as its system HepG2. In words: Antiproliferative activity against human HepG2 cells assessed as inhibition of cell growth incubated for 24 to 72 hrs by CCK8 assay. In general terms: Formazan colour is commonly taken as a measure of viable cells.
The subject of assay [3] is NCI-H460. Put plainly: Antiproliferative activity against human NCI-H460 cells assessed as inhibition of cell growth incubated for 24 to 72 hrs by CCK8 assay.

What is called IC50 is the midpoint of a concentration-inhibition curve. On to `CCCCCCCCCCCC(=O)O[C@@]12C[C@@H](C)[C@]34C=C(C)[C@H](OC)[C@@]3(O)[C@H](O)C(CO)=C[C@H](C4=O)[C@@H]1C2(C)C`, for which the IC50 in assay [1] came to 16.6 µM; in assay [2], 13.6 µM.
The matching figures for `CCCCCCCCCCCC(=O)O[C@@]12C[C@@H](C)[C@]34C=C(C)[C@H](OC(=O)N5CCCC5)[C@@]3(O)[C@H](O)C(CO)=C[C@H](C4=O)[C@@H]1C2(C)C`: 27.9 µM and 21.1 µM.
For `CCCCCCCCCCCC(=O)O[C@@]12C[C@@H](C)[C@]34C=C(C)[C@H](OC(=O)c5ccc(-c6ccccc6)cc5)[C@@]3(O)[C@H](O)C(CO)=C[C@H](C4=O)[C@@H]1C2(C)C` the same measures were > 50 µM and > 50 µM.
For `CCCCCCCCCCCC(=O)O[C@@]12C[C@@H](C)[C@]34C=C(C)[C@H](OC(=O)c5ccc(Br)cc5)[C@@]3(O)[C@H](O)C(COC(=O)c3ccc(Br)cc3)=C[C@H](C4=O)[C@@H]1C2(C)C`, the IC50 in assay [1] and in assay [3] was > 50 µM throughout.
Take `CCCCCCCCCCCC(=O)O[C@@]12C[C@@H](C)[C@]34C=C(C)[C@H](OCCC)[C@@]3(O)[C@H](O)C(CO)=C[C@H](C4=O)[C@@H]1C2(C)C`: the figures for the concentration for half-maximal inhibition (IC50) in assay [1] and in assay [2] were 30 µM and 12.7 µM, respectively.
For `CCCCCCCCCCCC(=O)O[C@@]12C[C@@H](C)[C@]34C=C(C)[C@H](OC(=O)NCc5ccc(C)cc5)[C@@]3(O)[C@H](O)C(CO)=C[C@H](C4=O)[C@@H]1C2(C)C` the same measures were > 50 µM and 27 µM.
For `CCCCCCCCCCCC(=O)O[C@@]12C[C@@H](C)[C@]34C=C(C)[C@H](OC(=O)C5CCCCC5)[C@@]3(O)[C@H](O)C(CO)=C[C@H](C4=O)[C@@H]1C2(C)C` the same measures were 17.1 µM and 13.4 µM.
The matching figures for `CCCCCCCCCCCC(=O)O[C@@]12C[C@@H](C)[C@]34C=C(C)[C@H](OC(=O)c5ccc([N+](=O)[O-])cc5)[C@@]3(O)[C@H](O)C(CO)=C[C@H](C4=O)[C@@H]1C2(C)C`: 14.2 µM and 12 µM.
As to `CCCCCCCCCCCC(=O)O[C@@]12C[C@@H](C)[C@]34C=C(C)[C@H](OC(=O)c5ccccc5)[C@@]3(O)[C@H](O)C(CO)=C[C@H](C4=O)[C@@H]1C2(C)C`, the figures for the IC50 in assay [1] and in assay [2] were 23.8 µM and 14.5 µM, respectively.
With `CCCCCCCCCCCC(=O)O[C@@]12C[C@@H](C)[C@]34C=C(C)[C@H](O)[C@@]3(O)[C@H](O)C(COC(=O)c3ccc(Br)cc3)=C[C@H](C4=O)[C@@H]1C2(C)C`, the concentration for half-maximal inhibition (IC50) in assay [1] and in assay [3] was > 50 µM throughout.
As to `CCCCCCCCCCCC(=O)O[C@@]12C[C@@H](C)[C@]34C=C(C)[C@H](OC(=O)c5ccc(OC)cc5)[C@@]3(O)[C@H](O)C(CO)=C[C@H](C4=O)[C@@H]1C2(C)C`, the IC50 in assay [1] turned out to be 23.6 µM; in assay [2] it was 14.3 µM.
Turning to `CCCCCCCCCCCC(=O)O[C@@]12C[C@@H](C)[C@]34C=C(C)[C@H](OC(=O)NCCCCCC)[C@@]3(O)[C@H](O)C(CO)=C[C@H](C4=O)[C@@H]1C2(C)C`, the IC50 in assay [1] was 31 µM; in assay [3], 29 µM.
As for `CCCCCCCCCCCC(=O)O[C@@]12C[C@@H](C)[C@]34C=C(C)[C@H](OC(=O)NC(C)C)[C@@]3(O)[C@H](O)C(CO)=C[C@H](C4=O)[C@@H]1C2(C)C`, the figures for the 50% inhibitory concentration (IC50) in assay [1] and in assay [2] were 18.1 µM and 13.5 µM, respectively.
For `CCCCCCCCCCCC(=O)O[C@@]12C[C@@H](C)[C@]34C=C(C)[C@H](OC(=O)c5ccc6ccccc6c5)[C@@]3(O)[C@H](O)C(CO)=C[C@H](C4=O)[C@@H]1C2(C)C` the same measures were > 50 µM and > 50 µM.
Turning to `CCCCCCCCCCCC(=O)O[C@@]12C[C@@H](C)[C@]34C=C(C)[C@H](OC(=O)NC5CC5)[C@@]3(O)[C@H](O)C(CO)=C[C@H](C4=O)[C@@H]1C2(C)C`, the concentration for half-maximal inhibition (IC50) in assay [1] came to 13.7 µM; in assay [2], 12.7 µM.
